From patent US10682323B2, “Therapeutic agent for glaucoma” (TOA EIYO LTD., priority 2016, dated 2020)

Legend:
[1] = as disclosed in Patent Literature 1 (WO 2015/095515 A); cited from earlier work
human sGC = target: T1, human sGC (Homo sapiens, UniProt Q02153); assay: Measurement of sGC activating effect in CHO-K1 cells stably expressing human sGC and mouse CNGA2; assay type: cell-based; conditions: CHO-K1 cells expressing human sGC and mouse CNGA2, Fura2 calcium readout, 10 μmol/L ODQ in assay buffer
T1 construct: expressed in transfected cells; host or cells: CHO-K1 cells (Chinese hamster ovary), stably co-expressing mouse CNGA2 as the calcium read-out channel
T1 sequence (Q02153 1-619): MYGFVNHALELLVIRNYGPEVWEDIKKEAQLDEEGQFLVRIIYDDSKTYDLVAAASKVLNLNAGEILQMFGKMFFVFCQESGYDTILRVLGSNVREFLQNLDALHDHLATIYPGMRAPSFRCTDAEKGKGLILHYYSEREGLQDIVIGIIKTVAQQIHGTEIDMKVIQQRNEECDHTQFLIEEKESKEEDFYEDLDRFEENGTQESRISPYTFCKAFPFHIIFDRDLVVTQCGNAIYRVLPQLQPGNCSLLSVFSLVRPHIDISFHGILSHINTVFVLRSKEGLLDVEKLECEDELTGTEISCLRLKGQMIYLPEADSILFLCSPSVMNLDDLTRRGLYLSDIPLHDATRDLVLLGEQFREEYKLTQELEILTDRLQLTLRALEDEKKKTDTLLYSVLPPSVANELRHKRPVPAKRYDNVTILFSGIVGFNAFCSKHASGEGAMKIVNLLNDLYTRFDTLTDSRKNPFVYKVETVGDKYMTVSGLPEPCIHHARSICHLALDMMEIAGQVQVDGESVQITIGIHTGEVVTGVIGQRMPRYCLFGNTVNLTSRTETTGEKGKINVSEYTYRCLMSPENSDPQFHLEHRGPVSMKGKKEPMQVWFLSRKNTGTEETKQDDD
T1 sequence (Q02108 1-690 partner): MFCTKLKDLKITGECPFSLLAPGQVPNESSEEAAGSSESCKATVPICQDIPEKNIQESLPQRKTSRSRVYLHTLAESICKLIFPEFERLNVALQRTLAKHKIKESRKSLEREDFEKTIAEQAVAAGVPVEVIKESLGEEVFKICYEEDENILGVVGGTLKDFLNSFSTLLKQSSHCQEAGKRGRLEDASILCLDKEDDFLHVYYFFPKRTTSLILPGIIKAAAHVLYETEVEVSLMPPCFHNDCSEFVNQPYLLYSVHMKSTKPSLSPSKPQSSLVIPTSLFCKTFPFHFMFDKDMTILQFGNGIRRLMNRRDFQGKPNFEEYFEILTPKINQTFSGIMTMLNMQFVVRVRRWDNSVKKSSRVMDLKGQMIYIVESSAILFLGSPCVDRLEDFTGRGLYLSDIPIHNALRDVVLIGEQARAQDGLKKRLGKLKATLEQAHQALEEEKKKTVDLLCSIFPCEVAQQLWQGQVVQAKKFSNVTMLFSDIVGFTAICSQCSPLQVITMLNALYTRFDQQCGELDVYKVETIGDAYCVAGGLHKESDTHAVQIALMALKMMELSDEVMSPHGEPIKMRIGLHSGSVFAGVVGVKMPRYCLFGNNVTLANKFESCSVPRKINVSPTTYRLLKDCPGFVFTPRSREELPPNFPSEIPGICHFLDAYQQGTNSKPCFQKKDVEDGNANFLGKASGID
Method: Chinese Hamster ovary cells (CHO-K1 cells) modified for stably expressing human sGC α subunit and β subunit, and a mouse cyclic nucleotide gated channel (CNGA2) were used in the test.
The CHO-K1 cells stably expressing human sGC and mouse CNGA2 were cultured at 37° C. in a F-12 medium supplemented with 10% (v/v) fetal bovine serum (FBS), penicillin (100 U/mL), streptomycin (100 μg/mL), G418 (250 μg/mL), and Zeocin (250 μg/mL). The cells were suspended in a culture medium, seeded in a 96 well plate, and cultured at 37° C. for 24 hours. The cells were washed with an assay buffer 1 (140 mmol/L of sodium chloride, 5 mmol/L of potassium chloride, 0.5 mmol/L of magnesium chloride, 0.01 mmol/L of calcium chloride, 10 mmol/L of glucose, 0.4 mmol/L of magnesium sulfate, 10 mmol/L of 4-(2-hydroxyethyl)piperazine-1-yl ethanesulfonic acid, 125 μmol/L of sulfinpyrazone, pH 7.4), and then an indicator solution in which Fura2-AM as a fluorescent Ca2+ indicator is dissolved in assay buffer 1 at a concentration of 5 μmol/L was added thereto, and cultured at 37° C. for 60 minutes. The culture medium was removed, the cells were washed with assay buffer 1, the test compound solution was added thereto, and cultured at room temperature for 10 minutes. The plate was mounted on a fluorescence microplate reader (FlexStation II, available from Molecular Devices) with setting of excitation wavelengths of 340 and 380 nm and a detection wavelength of 510 nm, an intracellular calcium concentration was measured as a fluorescent intensity ratio obtained from each excitation wavelength.
In this test, the solution of the test compound was prepared by dissolving each test compound in DMSO at a concentration of 10 mmol/L, and then diluting the solution with assay buffer 2 (140 mmol/L of sodium chloride, 5 mmol/L of potassium chloride, 0.5 mmol/L of magnesium chloride, 1 mmol/L of calcium chloride, 10 mmol/L of glucose, 0.4 mmol/L of magnesium sulfate, 10 mmol/L of 4-(2-hydroxyethyl)piperazine-1-yl ethanesulfonic acid, 125 μmol/L of sulfinpyrazone, 100 μmol/L of isobutylmethylxanthine, 10 μmol/L of 1H-[1,2,4]-oxadiazole [4,3-a]quinoxaline-1-on (hereinafter, referred to as ODQ), pH 7.4), in order to adjust the concentration of 10 μmol/L for testing. As a control solution, a DMSO diluted solution was used, instead of the test compound solution.
The activity of the test compound was calculated as an increase rate (%) of the sGC activity in the test compound solution relative to the sGC activity in the control solution, by dividing a fluorescent intensity ratio in adding the test compound by a fluorescent intensity ratio of the control solution, and subtracting the sGC activity in the control solution (100%) therefrom. An EC50 value was calculated from the activity of the test compound at concentrations of 0.0001, 0.001, 0.003, 0.01, 0.03, 0.1, 1, and 10 μmol/L, using a 4 parameter losgistic model from Assay Explorer (available from Dssault Systèmes BIOVIA).

[2] = Determination of Log D value (flask shaking method); assay type: physicochemical; conditions: pH 6.8; partition between n-octanol and second solution for the disintegration test (16th revised Japanese Pharmacopoeia), room temperature
Method: More specifically, the Log D is more preferably 1.6 or more and 2.3 or less, still more preferably 1.8 or more and 2.2 or less, and particularly preferably 1.8 or more and 2.1 or less. Here, the Log D value in the present invention is a compound partition coefficient between n-octanol and a second solution of a disintegration test of the 16th revised Japanese Pharmacopoeia.
The Log D value was determined using a flask shaking method, where a test compound partition coefficient between n-octanol and the second solution for the disintegration test defined in the 16th revised Japanese Pharmacopoeia was calculated. Specifically, in a microtube containing 2 mg of the test compound, n-octanol (0.25 mL) and the second solution for the disintegration test (0.25 mL) were mixed. The tube was shaken in a multi shaker at room temperature for 60 minutes, and allowed to stand until the two phases were completely separated. In the microtube, 10 μL of an n-octanol phase was diluted with 190 μL of 85% methanol and mixed, thereby obtaining an organic phase test solution. 100 μL of the second solution phase for the disintegration test was diluted with 100 μL of 50% methanol, and mixed, thereby obtaining an aqueous phase test solution. The organic phase test solution and the aqueous phase test solution were filtered, respectively, and the concentration of the test compound in these test solutions were measured, using high performance liquid chromatography. Then, from the measured concentration and dilution rate, the Log D was calculated.
That is, the Log D of the present specification is represented by the following equation: Log D=Log10([concentration of test compound in organic phase test solution]/[concentration of test compound in aqueous phase test solution])+1 [Equation 1]
The second solution for the disintegration test herein refers to, as defined in the 16th revised Japanese Pharmacopoeia, a liquid obtained by adding to 250 mL of a 0.2 mol/L potassium dihydrogenphosphate reagent, 118 mL of a 0.2 mol/L sodium hydroxide reagent, and water for adjusting to 1000 mL volume.

Compound | EC50 (human sGC) [nM] | logD [2] | intraocular pressure lowering action [1]
O=C(O)CCCCN(CCc1ccccc1OCc1ccc(CCc2ccccc2)cc1)Cc1ccc(C(=O)O)cc1 [Cinaciguat] |  |  | low intraocular pressure lowering action
O=C(O)CCCCN(CCc1ccccc1OCc1ccc(CCc2ccccc2)cc1)[C@H]1CCc2cc(C(=O)O)ccc21 [Compound No. 12] | 11.9 | 1.95 | 
O=C(O)CCCCN(Cc1ccc(C(=O)O)cc1)C[C@H](OCc1ccc(CCc2ccccc2)cc1F)c1ccccc1 [Compound No. 3, (−)-4-([N-(4-carboxybutyl)-N-[(2R)-2-[2 fluoro-4-(2-phenylethyl)benzyloxy]-2-phenylethyl]amino]methyl)benzoic acid] | 2.35 | 1.99 | 
CC(C)c1ccc(COc2ccccc2CCN(CCCCC(=O)O)[C@H]2CCCc3cc(C(=O)O)ccc32)cc1 [Compound No. 10, (+)-(5S)—[N-(4-carboxybutyl)-N-[2-[2-(4-isopropylbenzyloxy)phenyl]ethyl]amino]-5,6,7,8-tetrahydronaphthalene-2-carboxylic acid] | 9.63 | 1.88 | 
O=C(O)CCCCN(Cc1ccc(C(=O)O)cc1)C[C@H](OCc1ccc(Oc2ccc(Cl)cc2)cc1)c1ccccc1 [Compound No. 5, (−)-4-([N-(4-carboxybutyl)-N-[(2R)-2-[4-(4-chlorophenyloxy)benzyloxy]-2-phenylethyl]amino]methyl)benzoic acid] | 6.49 | 2.17 | 

Continued, in another order:

EC50 (human sGC) [nM] | logD [2] | Compound | intraocular pressure lowering action [1]
3.96 | 1.87 | O=C(O)CCCCN(CCc1ccccc1OCc1ccc2c(c1)CCCC2)C1CCCc2cc(C(=O)O)ccc21 (stereo not shown) [Compound No. 20, 5-[N-(4-carboxybutyl)-N-[2-[2-(1,2,3,4-tetrahydronaphthalene-6-ylmethoxy)phenyl]ethyl]amino]-5,6,7,8-tetrahydronaphthalene-2-carboxylic acid] | 
26.5 | 2.19 | O=C(O)CCCCN(Cc1ccc(C(=O)O)cc1)CC(OCc1ccc(CCc2ccccc2)cc1)c1ccc(F)cc1 (stereo not shown) [Compound No. 13, 4-([N-(4-carboxybutyl)-N-[2-(4-fluorophenyl)-2-[4-(2-phenylethyl)benzyloxy]ethyl]amino]methyl)benzoic acid] | 
15.6 | 2.24 | O=C(O)CCCCN(CCc1ccccc1OCc1ccc(OCc2ccccc2)cc1)C1CCCc2cc(C(=O)O)ccc21 (stereo not shown) [Compound No. 26, 5-[N-[2-[2-(4-benzyloxybenzyloxy)phenyl]ethyl]amino-N-(4-carboxybutyl)]-5,6,7,8-tetrahydronaphthalene-2-carboxylic acid] | 
7.5 | 1.99 | O=C(O)CCCCN(CCc1ccccc1OC[C@@H]1CCc2ccccc2C1)C1CCCc2cc(C(=O)O)ccc21 (stereo partly drawn) [Compound No. 16, 5-[N-(4-carboxybutyl)-N-[2-[2-((2R)-1,2,3,4-tetrahydronaphthalene-2-ylmethoxy)phenyl]ethyl]amino]-5,6,7,8-tetrahydronaphthalene-2-carboxylic acid] | 
15.9 | 2.06 | O=C(O)CCCCN(CCc1ccccc1OCc1ccc(C#CC2CC2)cc1)C1CCCc2cc(C(=O)O)ccc21 (stereo not shown) [Compound No. 21, 5-[N-(4-carboxybutyl)-N-[2-[2-[4-(2-cyclopropylethynyl)benzyloxy]phenyl]ethyl]amino]-5,6,7,8-tetrahydronaphthalene-2-carboxylic acid] | 
